Patent US20240307372A1, “COMPOSITIONS AND METHODS TO IMPROVE BENEFIT OF SUBOPTIMALLY ADMINISTERED THERAPEUCTICS FOR THE TREATMENT OF BENIGN AND NEOPLASTIC DISEASES, INFECTIONS, INFLAMMATORY, METABOLIC AND IMMUNOLOGIAL DISEASES” (priority 2023, published 2024)
Like-named read-outs stand apart in the source and are kept apart here.

What was measured:
[1] = tested on: human chronic myeloid leukemia (CML) progenitors; assay: Colony forming cell (CFC) assay on CML patient bone marrow cells, methylcellulose-based medium
Protocol: An in vitro investigation was performed to determine whether TET has efficacy on human chronic myeloid leukemia (CML) stem-like cells. A colony forming cell (CFC) assay was performed on bone marrow cells from a de-novo CML patient.
Human bone marrow light density cells derived from CML patient bone marrow (Conversant Bio, Alabama), were stored in the gaseous phase of liquid nitrogen until required. On the day of the experiment, the cells were thawed rapidly, the contents of the vial were diluted in 10 mL of Iscove's Modified Dulbecco's Medium containing 10% fetal bovine serum (IMDM+10% FBS) and washed by centrifugation (approximately 1200 r.p.m. for 10 minutes, room temperature). The supernatant was discarded and the cell pellets resuspended in a known volume of IMDM+10% FBS. A cell count (3% glacial acetic acid) and viability assessment (trypan blue exclusion test) […] Tetrandrine (10 μM) for 14 days. After treatment, primary and secondary colonies were grown and analyzed by qPCR to determine BCR-ABL or ABL only cells.
Human erythroid (CFU-E and BFU-E) and myeloid (CFU-GM) colony enumeration were performed by trained personnel. In addition, the distribution of colony types as well as general colony and cellular morphology were analyzed. […] For statistical analysis, colony numbers in compound-treated cultures were compared to the solvent control cultures.

[2] = cited from earlier work
[3] = IV, cited from earlier work
[4] = tested on: HCT116 cells; conditions: human colorectal (HCT116) cells; cited from earlier work
[5] = target: hERG (Homo sapiens, UniProt Q12809); assay: hERG inhibition, IonWorks HT electrophysiology in CHO cells stably transfected with hERG; conditions: for IC50: read-out: hERG IC50, CHO cells stably transfected with hERG, 300 sec contact
Sequence of hERG (Q12809 whole entry): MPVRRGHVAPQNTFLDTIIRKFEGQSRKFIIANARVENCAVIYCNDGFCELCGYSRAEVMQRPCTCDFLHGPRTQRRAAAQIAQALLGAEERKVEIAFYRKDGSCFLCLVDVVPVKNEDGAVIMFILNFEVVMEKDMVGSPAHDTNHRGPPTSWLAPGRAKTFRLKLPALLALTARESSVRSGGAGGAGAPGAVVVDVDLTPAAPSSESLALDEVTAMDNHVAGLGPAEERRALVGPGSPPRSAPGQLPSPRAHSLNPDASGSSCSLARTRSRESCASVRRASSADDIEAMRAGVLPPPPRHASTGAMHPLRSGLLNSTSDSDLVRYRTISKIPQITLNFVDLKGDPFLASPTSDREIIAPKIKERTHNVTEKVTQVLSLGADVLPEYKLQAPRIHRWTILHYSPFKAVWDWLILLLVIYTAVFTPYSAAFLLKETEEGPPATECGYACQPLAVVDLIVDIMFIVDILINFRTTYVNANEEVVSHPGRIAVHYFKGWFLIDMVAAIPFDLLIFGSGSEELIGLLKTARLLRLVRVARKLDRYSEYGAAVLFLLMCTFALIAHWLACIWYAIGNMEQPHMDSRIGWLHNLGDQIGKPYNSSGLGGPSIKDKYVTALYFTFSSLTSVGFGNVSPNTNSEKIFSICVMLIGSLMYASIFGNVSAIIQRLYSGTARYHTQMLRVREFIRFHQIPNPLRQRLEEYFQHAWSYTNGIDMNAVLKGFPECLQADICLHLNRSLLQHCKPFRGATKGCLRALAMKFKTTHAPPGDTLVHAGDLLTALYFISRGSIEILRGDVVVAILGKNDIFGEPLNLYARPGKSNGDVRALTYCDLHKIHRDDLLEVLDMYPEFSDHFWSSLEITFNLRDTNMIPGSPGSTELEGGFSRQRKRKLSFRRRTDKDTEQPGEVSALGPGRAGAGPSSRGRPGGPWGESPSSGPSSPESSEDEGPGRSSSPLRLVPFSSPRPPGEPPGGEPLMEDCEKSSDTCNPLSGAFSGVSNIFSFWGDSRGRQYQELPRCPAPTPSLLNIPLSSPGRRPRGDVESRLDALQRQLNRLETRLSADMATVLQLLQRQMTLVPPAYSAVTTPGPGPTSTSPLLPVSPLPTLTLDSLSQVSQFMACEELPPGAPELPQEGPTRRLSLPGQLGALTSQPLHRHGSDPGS
Protocol: The purpose of this study was to evaluate the potential of a test article to inhibit hERG. The experiments are performed on an Ion Works™ HT instrument (Molecular Devices Corporation), which automatically performs electrophysiology measurements in […] single cells simultaneously in aspecialized 384-well plate (PatchPlate). All cell suspensions, buffers and test compound solutions are at room temperature during the experiment. The cells used are Chinese hamster ovary (CHO) cells stably transfected with hERG (cell-line obtained from Cytomyx, UK). A single-cell suspension is prepared in extracellular solution (Dulbecco's phosphate buffered saline with calcium and magnesium pH 7-7.2) and aliquots added automatically to each well of a PatchPlate™. The cells are then positioned over a small hole at the bottom of each well by applying a vacuum beneath the plate to form an electrical seal. The vacuum is applied through a single compartment common to all wells which is filled with intracellular solution (buffered to pH 7.2 with HEPES). The resistance of cach seal is measured via a common ground-electrode in the intracellular compartment and individual electrodes placed into each of the upper wells. Electrical access to the cell is then achieved by circulating a perforating agent, amphotericin, underneath the PatchPlate and then measuring the pre-compound hERG current. An electrode is positioned in the extracellular compartment and a holding potential of −80 mV applied for 15 sec. The hERG channels are then activated by applying a depolarizing step to +40 mV for 5 sec and then clamped at −50 mV for 4 sec to elicit the hERG tail current, before returning to −80 mV for 0.3 sec. Test compound is then added automatically to the upper wells of the PatchPlateTM from a 96-well microtitre plate containing a range of concentrations of each compound. […] The test compound is left in contact with the cells for 300 sec before recording currents using the same voltage-step protocol as in the pre-compound scan. […] Each concentration is tested in 4 replicate wells on the PatchPlate™. […] Post-compound currents are then expressed as a percentage of pre-compound currents and plotted against concentration for each compound (FIG. 8). Testing was conducted by Cyprotex US, LLC, Watertown, MA.

[6] = tested on: leukemia cell lines; conditions: cited from earlier work
[7] = tested on: K562 cells; assay: K562 cell viability after TET exposure (trypan blue); assay type: cell-based, human; conditions: 24 hours
Protocol: Briefly, the method for the first portion of the study was as follows: K562 cells were grown and maintained in medium (RPMI, 10% FBS, Pen Strep and […]). Cells were then exposed to TET, 0, 0.1, 1, 5, 10, 20 & 40 μM for 24 hours at 37° C. Following drug exposure, cell viability was checked using trypan blue, followed by cell lysis. Supernatants were collected and test for protein concentration using a Pierce BCA kit. The protein assay tubes were read on a Spectramax at 562 nm and Softmax@ software was used for protein concentration analysis.
The effect of TET treatment on K562 percent cell viability is depicted in Table 2 and is graphically illustrated in FIG. 2.

[8] = target: Pgp (Homo sapiens, UniProt P08183); conditions: cited from earlier work
Sequence of Pgp (P08183 whole entry): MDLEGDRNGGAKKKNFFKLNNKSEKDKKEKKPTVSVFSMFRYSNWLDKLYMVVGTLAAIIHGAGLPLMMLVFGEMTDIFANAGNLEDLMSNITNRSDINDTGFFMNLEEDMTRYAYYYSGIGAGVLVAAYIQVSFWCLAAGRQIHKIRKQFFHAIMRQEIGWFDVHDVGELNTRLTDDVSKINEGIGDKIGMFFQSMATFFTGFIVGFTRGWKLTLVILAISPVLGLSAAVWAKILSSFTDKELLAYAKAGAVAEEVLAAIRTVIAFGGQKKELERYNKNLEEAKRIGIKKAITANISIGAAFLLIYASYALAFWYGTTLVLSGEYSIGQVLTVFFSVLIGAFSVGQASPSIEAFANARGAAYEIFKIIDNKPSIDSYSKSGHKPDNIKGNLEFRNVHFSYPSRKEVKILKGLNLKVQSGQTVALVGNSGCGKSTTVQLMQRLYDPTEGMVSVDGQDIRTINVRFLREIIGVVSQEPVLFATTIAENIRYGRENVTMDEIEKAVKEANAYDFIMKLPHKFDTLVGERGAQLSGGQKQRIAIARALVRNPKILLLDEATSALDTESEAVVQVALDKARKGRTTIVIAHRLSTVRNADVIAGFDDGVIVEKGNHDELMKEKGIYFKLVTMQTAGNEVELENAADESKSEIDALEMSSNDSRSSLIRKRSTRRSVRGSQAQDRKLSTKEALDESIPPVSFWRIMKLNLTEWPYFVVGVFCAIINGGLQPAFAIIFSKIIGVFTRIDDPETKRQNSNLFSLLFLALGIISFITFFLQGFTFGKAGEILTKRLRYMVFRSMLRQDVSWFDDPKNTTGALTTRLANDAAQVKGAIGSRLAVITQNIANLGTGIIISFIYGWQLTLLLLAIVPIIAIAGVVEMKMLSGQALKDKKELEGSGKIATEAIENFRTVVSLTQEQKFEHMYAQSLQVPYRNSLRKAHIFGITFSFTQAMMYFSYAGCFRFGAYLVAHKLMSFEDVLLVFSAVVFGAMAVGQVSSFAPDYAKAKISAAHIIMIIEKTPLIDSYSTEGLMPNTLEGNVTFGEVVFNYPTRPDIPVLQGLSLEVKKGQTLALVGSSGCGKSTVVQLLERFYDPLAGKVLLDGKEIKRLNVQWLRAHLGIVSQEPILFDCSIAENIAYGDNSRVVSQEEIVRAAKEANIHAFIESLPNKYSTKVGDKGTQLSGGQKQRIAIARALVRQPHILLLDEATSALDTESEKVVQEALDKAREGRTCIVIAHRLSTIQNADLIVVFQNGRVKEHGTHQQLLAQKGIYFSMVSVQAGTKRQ

[9] = tested on: human chronic myeloid leukemia (CML) progenitors; assay: Colony forming cell (CFC) assay on CML patient bone marrow cells, methylcellulose-based medium; conditions: for BFU-E colonies / CFU-E colonies / Total Erythroid colonies: no Epo
[10] = target: calmodulin (CaM) (Homo sapiens, UniProt P0DP23); conditions: cited from earlier work

## 6,6′,7,12-tetramethoxy-2,2′-dimethyl-berbaman [ES-3000]
[1]; 10 μM
  CFU-GM colonies: 26 ± 2
  Total CFC: 26 ± 2
[1]; read-out: Myeloid IC50 ± 95% CI, Human progenitors
  IC50: 9.56 ± 1.25 µM
[2]
  protein binding: highly protein bound
[3]; daily ×5, repeated every 2 weeks
  recommended dose for a Phase II study: 200 mg/m2
[3]; single dose repeated weekly
  recommended dose for a Phase II study: 300 mg/m2
[4]
  wnt/β-catenin signaling and tumor growth: inhibit wnt/β-catenin signaling and tumor growth
[5]
  IC50: 5.15 µM
[5]; listed as TET
  IC50: 5.2 µM
[5]; subjects
  plasma level above which QT prolongation might be expected: above 249 ng/mL
[5]; utilizing Cmax from previous human clinical experience
  safety margin for cardiac conduction-related toxicity (hERG IC50 versus human Cmax): 13 fold
[6]; NCI 60 cell line screen
  50% growth inhibition (Log GI50): −5.0 to −6.6
[6]; read-out: 50% growth inhibition (GI50), NCI 60 cell line screen
  GI50: 0.25 to 10 µM
[7]; 0.1 μM
  % Viability: 82.4%
[7]; 1 μM
  % Viability: 79.2%
[7]; 5 μM
  % Viability: 81.8%
[7]; 10 μM
  % Viability: 79.7%
[7]; 20 μM
  % Viability: 76.5%
[7]; 40 μM
  % Viability: 56.4%
[8]
  Pgp substrate: not a substrate of Pgp
  function of Pgp: directly inhibits the function of Pgp in a dose-dependent manner
[9]; 0.1 μM
  CFU-GM colonies: 55 ± 5
  Total CFC: 88 ± 8
  BFU-E colonies: 22 ± 4
  CFU-E colonies: 11 ± 1
  Total Erythroid colonies: 33 ± 3
[9]; 1 μM
  CFU-GM colonies: 54 ± 2
  Total CFC: 86 ± 4
  BFU-E colonies: 22 ± 4
  CFU-E colonies: 10 ± 2
  Total Erythroid colonies: 33 ± 3
[9]; 3 μM
  CFU-GM colonies: 52 ± 5
  Total CFC: 75 ± 6
  BFU-E colonies: 14 ± 3
  CFU-E colonies: 9 ± 2
  Total Erythroid colonies: 23 ± 2
[9]; read-out: Erythroid IC50 ± 95% CI, Human progenitors
  IC50: 3.12 ± 0.01 µM
[10]
  binding to calmodulin (CaM): bind competitively to calmodulin (CaM)
